According to patent publication US8802597B2, “Herbicidal pyrimidines” (E I du Pont de Nemours and Company, priority 2003, dated 2014):

Columns and labels:
Type in all cases: in vivo
[1] = tested on: duck salad (Heteranthera limosa); assay: Test B flooded paddy test; settings: Flood, 1000 g ai/ha; scale 0 to 100
In short: (§1)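 Plants were grown to the 2-leaf stage before treatment, then kept in a greenhouse for 13 to 15 days. Injury was rated visually against untreated controls on a 0 to 100 scale, where 0 is no effect and 100 is complete control.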

[2] = tested on: umbrella sedge (Cyperus difformis); assay: Test B flooded paddy test; settings: Flood, 1000 g ai/ha; scale 0 to 100
In short: as §1

rice (Oryza sativa) = assay: Test B flooded paddy test; settings: Flood, 1000 g ai/ha; scale 0 to 100
In short: as §1

[3] = tested on: barnyardgrass (Echinochloa crus-galli); assay: Test B flooded paddy test; settings: Flood, 1000 g ai/ha; scale 0 (no effect) to 100 (complete control)
In short: as §1

[4] = tested on: crabgrass (Digitaria sanguinalis); assay: Test B pre/postemergence
In short: (§2)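 Greenhouse whole-plant test; surfactant-containing non-phytotoxic solvent formulation; pre- and postemergence applications made simultaneously; post plants 2–18 cm, 1- to 4-leaf; visual scoring at 13–15 days on 0–100 scale relative to controls.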

[5] = tested on: wheat (Triticum aestivum); assay: Test B pre/postemergence
In short: as §2

[6] = tested on: morningglory (Ipomoea coccinea); assay: Test B pre/postemergence
In short: as §2

[7] = tested on: lambsquarters (Chenopodium album); assay: Test B pre/postemergence
In short: as §2

corn (Zea mays) = assay: Test B pre/postemergence
In short: as §2

[8] = tested on: Surinam grass (Brachiaria decumbens); assay: Test B pre/postemergence
In short: as §2

[9] = tested on: cocklebur (Xanthium strumarium); assay: Test B pre/postemergence
In short: as §2

[10] = tested on: pigweed (Amaranthus retroflexus); assay: Test B pre/postemergence
In short: as §2

[11] = tested on: giant foxtail (Setaria faberii); assay: Test B pre/postemergence
In short: as §2

[12] = tested on: barnyardgrass (Echinochloa crus-galli); assay: Test B pre/postemergence
In short: as §2

[13] = tested on: velvetleaf (Abutilon theophrasti); assay: Test B pre/postemergence
In short: as §2

[14] = tested on: blackgrass (Alopecurus myosuroides); assay: Test B postemergence; settings: for Blackgrass plant response rating: 125 g ai/ha, scale 0 to 100 (0 no effect, 100 complete control); for Plant response rating, Blackgrass: 500 g ai/ha, scale 0 to 100
In short: as §2

wild oat (Avena fatua) = assay: Test B postemergence; settings: for Oat, Wild plant response rating: 125 g ai/ha, scale 0 to 100 (0 no effect, 100 complete control); for Plant response rating, Oat, Wild: 500 g ai/ha, scale 0 to 100
In short: as §2

[15] = Postemergence, 125 g ai/ha, scale 0 to 100 (0 no effect, 100 complete control)
[16] = Postemergence, 500 g ai/ha, scale 0 to 100
[17] = Preemergence, 125 g ai/ha, scale 0 to 100 (0 no effect, 100 complete control)
[18] = Preemergence, 500 g ai/ha, scale 0 to 100 (0 no effect, 100 complete control)

CCOC(=O)Cc1nc(C2CC2)nc(N=CN(C)C)c1Br [Compound 33]
100: Lambsquarters plant response rating [7, 18]
70: Plant response rating, Morningglory [6, 16] | Plant response rating, Lambsquarters [7, 16] | Plant response rating, Velvetleaf [13, 17]
90: Morningglory plant response rating [6, 18] | Plant response rating, Lambsquarters [7, 17] | Cocklebur plant response rating [9, 18] | Pigweed plant response rating [10, 18]
80: Plant response rating, Cocklebur [9, 16] | Plant response rating, Cocklebur [9, 17] | Plant response rating, Pigweed [10, 16] | Plant response rating, Pigweed [10, 17] | Velvetleaf plant response rating [13, 18]
40: Morningglory plant response rating [6, 15] | Surinam Grass plant response rating [8, 18] | Plant response rating, Foxtail, Giant [11, 16] | Foxtail, Giant plant response rating [11, 18] | Velvetleaf plant response rating [13, 15] | Blackgrass plant response rating [14] | Plant response rating, Blackgrass [14]
30: Corn plant response rating (corn (Zea mays); [18])
0: Plant response rating, Ducksalad [1] | Plant response rating, Sedge, Umbrella [2] | Plant response rating, Rice (rice (Oryza sativa)) | Plant response rating, Barnyardgrass [3] | Plant response rating, Crabgrass [4, 17] | Plant response rating, Wheat [5, 17] | Plant response rating, Morningglory [6, 17] | Corn plant response rating (corn (Zea mays); [15]) | Plant response rating, Corn (corn (Zea mays); [16]) | Surinam Grass plant response rating [8, 15] | Plant response rating, Surinam Grass [8, 16] | Plant response rating, Surinam Grass [8, 17] | Plant response rating, Foxtail, Giant [11, 17] | Barnyardgrass plant response rating [12, 15]
50: Crabgrass plant response rating [4, 18] | Wheat plant response rating [5, 18] | Barnyardgrass plant response rating [12, 18] | Plant response rating, Velvetleaf [13, 16]
60: Lambsquarters plant response rating [7, 15] | Cocklebur plant response rating [9, 15] | Pigweed plant response rating [10, 15]
10: Crabgrass plant response rating [4, 15] | Plant response rating, Corn (corn (Zea mays); [17]) | Foxtail, Giant plant response rating [11, 15]
20: Plant response rating, Crabgrass [4, 16] | Wheat plant response rating [5, 15] | Plant response rating, Wheat [5, 16] | Plant response rating, Barnyardgrass [12, 16] | Plant response rating, Barnyardgrass [12, 17] | Oat, Wild plant response rating (wild oat (Avena fatua)) | Plant response rating, Oat, Wild (wild oat (Avena fatua))

CCOC(=O)Cc1nc(C2CC2)nc(N)c1Br [Compound 12]
10: Crabgrass plant response rating [4, 15]
0: Plant response rating, Sedge, Umbrella [2] | Plant response rating, Barnyardgrass [3] | Wheat plant response rating [5, 15] | Plant response rating, Wheat [5, 16] | Corn plant response rating (corn (Zea mays); [15]) | Plant response rating, Corn (corn (Zea mays); [16]) | Plant response rating, Corn (corn (Zea mays); [17]) | Surinam Grass plant response rating [8, 15] | Plant response rating, Surinam Grass [8, 16] | Plant response rating, Surinam Grass [8, 17] | Foxtail, Giant plant response rating [11, 15] | Barnyardgrass plant response rating [12, 15] | Blackgrass plant response rating [14] | Plant response rating, Blackgrass [14] | Oat, Wild plant response rating (wild oat (Avena fatua)) | Plant response rating, Oat, Wild (wild oat (Avena fatua))
90: Morningglory plant response rating [6, 18] | Plant response rating, Lambsquarters [7, 17] | Cocklebur plant response rating [9, 18] | Pigweed plant response rating [10, 18] | Velvetleaf plant response rating [13, 18]
60: Wheat plant response rating [5, 18] | Morningglory plant response rating [6, 15] | Lambsquarters plant response rating [7, 15] | Plant response rating, Velvetleaf [13, 16]
80: Plant response rating, Morningglory [6, 16] | Plant response rating, Lambsquarters [7, 16] | Plant response rating, Cocklebur [9, 17] | Plant response rating, Pigweed [10, 16] | Plant response rating, Pigweed [10, 17] | Barnyardgrass plant response rating [12, 18] | Plant response rating, Velvetleaf [13, 17]
20: Plant response rating, Ducksalad [1] | Plant response rating, Rice (rice (Oryza sativa)) | Plant response rating, Crabgrass [4, 17] | Plant response rating, Foxtail, Giant [11, 17] | Velvetleaf plant response rating [13, 15]
100: Lambsquarters plant response rating [7, 18]
30: Plant response rating, Crabgrass [4, 16] | Plant response rating, Wheat [5, 17] | Corn plant response rating (corn (Zea mays); [18]) | Plant response rating, Foxtail, Giant [11, 16]
40: Cocklebur plant response rating [9, 15] | Plant response rating, Barnyardgrass [12, 16]
50: Pigweed plant response rating [10, 15] | Foxtail, Giant plant response rating [11, 18] | Plant response rating, Barnyardgrass [12, 17]
70: Crabgrass plant response rating [4, 18] | Plant response rating, Morningglory [6, 17] | Plant response rating, Cocklebur [9, 16]
